Results published in PubChem BioAssay (NCI).
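GI50: concentration for 50% inhibition of growth. TGI is the concentration that stops growth completely.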

What was measured:
Assay in all cases: inhibition of tumour cell growth, NCI panel, 384-well format
A498 renal = system: A498 renal
A549 NSCLC = system: A549 NSCLC
ACHN renal = system: ACHN renal
BT-549 breast = system: BT-549 breast
CAKI-1 renal = system: CAKI-1 renal
COLO 205 colon = system: COLO 205 colon
DU-145 prostate = system: DU-145 prostate
EKVX NSCLC = system: EKVX NSCLC
HCC-2998 colon = system: HCC-2998 colon
HCT-116 colon = system: HCT-116 colon
HCT-15 colon = system: HCT-15 colon
HL-60(TB) leukemia = system: HL-60(TB) leukemia
HOP-62 NSCLC = system: HOP-62 NSCLC
HOP-92 NSCLC = system: HOP-92 NSCLC
HS 578T breast = system: HS 578T breast
HT29 colon = system: HT29 colon
IGROV1 ovarian = system: IGROV1 ovarian
KM12 colon = system: KM12 colon
LOX IMVI melanoma = system: LOX IMVI melanoma
MCF7 breast = system: MCF7 breast
MDA-MB-231 breast = system: MDA-MB-231 breast
MDA-MB-435 melanoma = system: MDA-MB-435 melanoma
MDA-MB-468 breast = system: MDA-MB-468 breast
MOLT-4 leukemia = system: MOLT-4 leukemia
NCI-H226 lung = system: NCI-H226 lung
NCI-H322M lung = system: NCI-H322M lung
NCI-H460 NSCLC = system: NCI-H460 NSCLC
NCI-H522 lung = system: NCI-H522 lung
NCI/ADR-RES ovarian = system: NCI/ADR-RES ovarian
OVCAR-3 ovarian = system: OVCAR-3 ovarian
OVCAR-4 ovarian = system: OVCAR-4 ovarian
OVCAR-5 ovarian = system: OVCAR-5 ovarian
OVCAR-8 ovarian = system: OVCAR-8 ovarian
PC-3 prostate = system: PC-3 prostate
RPMI-8226 leukemia = system: RPMI-8226 leukemia
SF-268 CNS = system: SF-268 CNS
SF-295 CNS = system: SF-295 CNS
SF-539 CNS = system: SF-539 CNS
SK-MEL-28 melanoma = system: SK-MEL-28 melanoma
SK-MEL-5 melanoma = system: SK-MEL-5 melanoma
SK-OV-3 ovarian = system: SK-OV-3 ovarian
SN12C renal = system: SN12C renal
SNB-19 CNS = system: SNB-19 CNS
SNB-75 CNS = system: SNB-75 CNS
SR leukemia = system: SR leukemia
T-47D breast = system: T-47D breast
TK-10 renal = system: TK-10 renal
U251 glioblastoma = system: U251 glioblastoma
UACC-257 melanoma = system: UACC-257 melanoma

FC(F)c1nc2ccccc2n1-c1nc(N2CCOCC2)nc(N2CCOCC2)n1
GI50 (A498 renal): 101 nM
TGI (A498 renal): 351 nM
GI50 (A549 NSCLC): 645 nM
TGI (A549 NSCLC): > 100000 nM
GI50 (ACHN renal): 187 nM
TGI (ACHN renal): 1410 nM
GI50 (BT-549 breast): 207 nM
TGI (BT-549 breast): 1790 nM
GI50 (CAKI-1 renal): 216 nM
TGI (CAKI-1 renal): > 100000 nM
GI50 (COLO 205 colon): 246 nM
TGI (COLO 205 colon): 1980 nM
GI50 (DU-145 prostate): 352 nM
TGI (DU-145 prostate): 2390 nM
GI50 (EKVX NSCLC): 169 nM
TGI (EKVX NSCLC): 1550 nM
GI50 (HCC-2998 colon): 23.1 nM
TGI (HCC-2998 colon): 2120 nM
GI50 (HCT-116 colon): 1350 nM
TGI (HCT-116 colon): > 100000 nM
GI50 (HCT-15 colon): 330 nM
TGI (HCT-15 colon): > 100000 nM
GI50 (HL-60(TB) leukemia): 138 nM
TGI (HL-60(TB) leukemia): 896 nM
GI50 (HOP-62 NSCLC): 420 nM
TGI (HOP-62 NSCLC): 3960 nM
GI50 (HOP-92 NSCLC): 303 nM
TGI (HOP-92 NSCLC): > 100000 nM
GI50 (HS 578T breast): 202 nM
TGI (HS 578T breast): 2140 nM
GI50 (HT29 colon): 454 nM
TGI (HT29 colon): > 100000 nM
GI50 (IGROV1 ovarian): 44 nM
TGI (IGROV1 ovarian): 237 nM
GI50 (KM12 colon): 1400 nM
TGI (KM12 colon): > 100000 nM
GI50 (LOX IMVI melanoma): 598 nM
TGI (LOX IMVI melanoma): 4150 nM
GI50 (MCF7 breast): 84.3 nM
TGI (MCF7 breast): > 100000 nM
GI50 (MDA-MB-231 breast): 957 nM
TGI (MDA-MB-231 breast): > 100000 nM
GI50 (MDA-MB-435 melanoma): 918 nM
TGI (MDA-MB-435 melanoma): 4750 nM
GI50 (MDA-MB-468 breast): 202 nM
TGI (MDA-MB-468 breast): 2090 nM
GI50 (MOLT-4 leukemia): 166 nM
TGI (MOLT-4 leukemia): 716 nM
GI50 (NCI-H226 lung): 324 nM
TGI (NCI-H226 lung): 3020 nM
GI50 (NCI-H322M lung): 281 nM
TGI (NCI-H322M lung): 1980 nM
GI50 (NCI-H460 NSCLC): 224 nM
TGI (NCI-H460 NSCLC): 2140 nM
GI50 (NCI-H522 lung): 198 nM
TGI (NCI-H522 lung): 894 nM
GI50 (NCI/ADR-RES ovarian): 507 nM
TGI (NCI/ADR-RES ovarian): > 100000 nM
GI50 (OVCAR-3 ovarian): 174 nM
TGI (OVCAR-3 ovarian): 1080 nM
GI50 (OVCAR-4 ovarian): 25.2 nM
TGI (OVCAR-4 ovarian): 1530 nM
GI50 (OVCAR-5 ovarian): 133 nM
TGI (OVCAR-5 ovarian): 759 nM
GI50 (OVCAR-8 ovarian): 641 nM
TGI (OVCAR-8 ovarian): > 100000 nM
GI50 (PC-3 prostate): 56 nM
TGI (PC-3 prostate): 825 nM
GI50 (RPMI-8226 leukemia): 172 nM
TGI (RPMI-8226 leukemia): 608 nM
GI50 (SF-268 CNS): 1540 nM
TGI (SF-268 CNS): > 100000 nM
GI50 (SF-295 CNS): 250 nM
TGI (SF-295 CNS): 2370 nM
GI50 (SF-539 CNS): 475 nM
TGI (SF-539 CNS): > 100000 nM
GI50 (SK-MEL-28 melanoma): 402 nM
TGI (SK-MEL-28 melanoma): > 100000 nM
GI50 (SK-MEL-5 melanoma): 191 nM
TGI (SK-MEL-5 melanoma): 1290 nM
GI50 (SK-OV-3 ovarian): 282 nM
TGI (SK-OV-3 ovarian): 5000 nM
GI50 (SN12C renal): 19.8 nM
TGI (SN12C renal): 380 nM
GI50 (SNB-19 CNS): 3370 nM
TGI (SNB-19 CNS): > 100000 nM
GI50 (SNB-75 CNS): 154 nM
TGI (SNB-75 CNS): 13900 nM
GI50 (SR leukemia): 147 nM
TGI (SR leukemia): 896 nM
GI50 (T-47D breast): 171 nM
TGI (T-47D breast): 5380 nM
GI50 (TK-10 renal): 224 nM
TGI (TK-10 renal): 1740 nM
GI50 (U251 glioblastoma): 1230 nM
TGI (U251 glioblastoma): > 100000 nM
GI50 (UACC-257 melanoma): 278 nM
TGI (UACC-257 melanoma): 4260 nM
